Like-named read-outs stand apart in the source and are kept apart here.
What was measured:
[1] = Wall et al., J. Nat. Prod. 1989; cited from earlier work
androgen receptor = target: T1, androgen receptor (Homo sapiens, UniProt P10275); assay: Co-transfection androgen antagonist assay (CV-1 cells, pRShAR, MTV-LUC reporter; AR-wt); assay type: cell-based; details: for IC50: read-out: Potency (IC50, concentration required to reduce the maximal response by 50%)
T1 construct: expressed in transfected cells; host or cells: CV-1 (monkey kidney fibroblast) cells, plasmid pRShAR, with reporter plasmid MTV-LUC
T1 sequence (P10275 1-920): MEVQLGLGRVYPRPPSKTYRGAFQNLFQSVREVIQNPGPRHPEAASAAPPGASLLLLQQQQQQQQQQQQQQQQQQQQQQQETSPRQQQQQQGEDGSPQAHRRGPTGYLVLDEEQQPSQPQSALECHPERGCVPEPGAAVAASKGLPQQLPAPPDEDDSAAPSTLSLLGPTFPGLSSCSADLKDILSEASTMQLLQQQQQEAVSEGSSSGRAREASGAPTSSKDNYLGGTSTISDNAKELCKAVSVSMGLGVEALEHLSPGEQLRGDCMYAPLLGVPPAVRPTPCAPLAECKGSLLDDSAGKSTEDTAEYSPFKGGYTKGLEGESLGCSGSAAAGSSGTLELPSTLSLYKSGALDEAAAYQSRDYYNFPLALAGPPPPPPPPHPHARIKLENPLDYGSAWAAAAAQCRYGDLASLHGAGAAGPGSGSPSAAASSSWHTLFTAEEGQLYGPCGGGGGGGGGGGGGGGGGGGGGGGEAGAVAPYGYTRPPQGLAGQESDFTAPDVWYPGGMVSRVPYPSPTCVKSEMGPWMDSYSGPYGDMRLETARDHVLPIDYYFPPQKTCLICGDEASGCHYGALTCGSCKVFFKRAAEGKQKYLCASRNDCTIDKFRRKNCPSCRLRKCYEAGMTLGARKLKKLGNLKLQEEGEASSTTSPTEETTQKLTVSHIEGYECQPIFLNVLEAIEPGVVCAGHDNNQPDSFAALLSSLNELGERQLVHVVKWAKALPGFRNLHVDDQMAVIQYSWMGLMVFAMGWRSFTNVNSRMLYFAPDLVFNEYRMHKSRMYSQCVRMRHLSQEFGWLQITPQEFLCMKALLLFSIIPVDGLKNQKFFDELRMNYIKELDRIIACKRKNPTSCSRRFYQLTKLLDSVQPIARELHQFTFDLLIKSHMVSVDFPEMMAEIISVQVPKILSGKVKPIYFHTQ
Source text: The co-transfection assay provides a method for identifying functional ligands (either agonists which mimic, or antagonists which inhibit, the effect of hormones), and quantifying their activity for ligand-responsive receptor proteins. In this regard, the co-transfection assay mimics an in vivo system in the laboratory. Importantly, activity in the co-transfection assay correlates very well with known in vivo activity, such that the co-transfection assay functions as a quantitative predicator of a tested compounds in vivo pharmacology. See, e.g., T. Berger et al. 41 J. Steroid Biochem. Molec.
(§1) In the co-transfection assay, a cloned gene for an intracellular receptor (e.g., androgen receptor) is introduced by transfection (a procedure to induce cells to take up foreign genes) into a background cell substantially devoid of endogenous intracellular receptors. This introduced gene directs the recipient cells to make the intracellular receptor protein. A second gene is also introduced (co-transfected) into the same cells in conjunction with the intracellular receptor gene. This second gene functions as a reporter for the transcription-modulating activity of the target intracellular receptor. Thus, the reporter acts as a surrogate for the products normally expressed by a gene under control of the target receptor and its natural hormone. A preferred reporter gene is one which expresses the firefly enzyme luciferase.
(§2) The co-transfection assay can detect small molecule agonists or antagonists of target intracellular receptors. Exposing the cells to an agonist ligand increases reporter activity in the transfected cells. This activity can be conveniently measured, e.g., by increasing luciferase production, which reflects ligand-dependent, intracellular receptor-mediated increases in reporter transcription. To detect antagonists, the co-transfection assay is carried out in the presence of a constant concentration of an agonist (e.g., for androgen receptor, dihydrotestosterone) known to induce a defined reporter signal. Increasing concentrations of a test antagonist will decrease the reporter signal (e.g., luciferase production). The co-transfection assay is therefore useful to detect both agonists and antagonists of specific intracellular receptors. It determines not only whether a compound interacts with a particular intracellular receptor, but whether this interaction mimics (agonizes) or blocks (antagonizes) the effects of the natural regulatory molecules on target gene expression, as well as the specificity and strength of this interaction.
Co-transfected cells are exposed to a medium to which is added the potential ligand (compound) that is being evaluated. If the candidate compound diffuses into the cell, binds to the receptor, and the resulting receptor complex functions as an agonist, it will subsequently bind to the co-transfected reporter gene and initiate transcription. Typically, the reporter gene is one that expresses luciferase, which is capable of catalyzing a light-emitting reaction with its substrate luciferin. Thus, after cell lysis and the introduction of luciferin, the amount of light produced relative to the concentration of candidate compound used in the assay provides a measure of the potency and efficacy of the compound tested. Antagonist activity is evaluated by adding the candidate ligand and a known agonist to the co-transfected cells. […]

[2] = system: progesterone receptor (PR-TI); assay: Antagonist activity on progesterone receptor, CV-1 cells cotransfected with pRShPR-B altered at Tau-1 (PR-TI); assay type: cell-based, human; details: Table 2, CV-1 cells PR-TI; for Efficacy, PR-TI (% maximal response): comparable to that found with RU-486; for IC50: read-out: Potency, PR-TI (IC50)
Source text: as §1, §2
Co-transfected cells are exposed to a medium to which is added the potential ligand (compound) that is being evaluated. If the candidate compound diffuses into the cell, binds to the receptor, and the resulting receptor complex functions as an agonist, it will subsequently bind to the co-transfected reporter gene and initiate transcription. Typically, the reporter gene is one that expresses luciferase, which is capable of catalyzing a light-emitting reaction with its substrate luciferin. Thus, after cell lysis and the introduction of luciferin, the amount of light produced relative to the concentration of candidate compound used in the assay provides a measure of the potency and efficacy of the compound tested. Antagonist activity is evaluated by adding the candidate ligand and a known agonist to the co-transfected cells.
The specific activity of Compounds A-J was compared relative to their antagonist activity on the human progesterone receptor (PR) utilizing CV-1 cells cotransfected with plasmid pRShPR-B, as altered at the Tau-1 location (e.g., PR-TI)[specifically, hPR-B was excised from the vector pGEM3Z (69 Cell 703 (1992)); the Tau-1 fragment of the gluccocorticoid receptor was inserted into hPR-B at the unique HincII site in the N-terminal region; a Bst EII to BST bI fragment spanning the Tau-1 insertion was then used to replace the corresponding region in pRShPR-B]. […] Potency or IC50 is as reported for AR-wt transfected CV-1 cells.

[3] = CV-1, Table 1, androgen antagonists, relative to 2-Hydroxy-flutamide, read-out: Efficacy (% maximal response relative to 2-Hydroxy-flutamide)
[4] = Table 2, CV-1 cells AR-wt, read-out: Efficacy, AR-wt

| Molecule | Emax (androgen receptor; [3]) [%] | IC50 (androgen receptor; Table 1, androgen antagonists) [nM] | Emax (androgen receptor; [4]) [%] | IC50 [2] [nM] | antimutagenic activity [1] | Efficacy, PR-TI (% maximal response) [2] [%] |
| --- | --- | --- | --- | --- | --- | --- |
| 4-isocymobarbatol |  |  |  |  | highly active antimutagens |  |
| O=[N+]([O-])c1ccc(C[C@@H]2CCCC[C@H]2O)cc1 (relative stereo) [I, trans-2-(4'-Nitrophenyl)methylcyclohexan-1-ol] | 85 | 290 | 85 | 360 |  | 99 |
| C=C1C=CC(Br)C(C)(C)[C@H]1Cc1cc(OC)c(Br)cc1OC(C)=O (stereo partly drawn) [E, (4S,6S)-1-Methylidene-4-bromo-5-(2'-acetoxy-4'-bromo-5'-methyoxyphenyl)methyl-5,5-dimethylcyclohex-2-ene] | 60 | 230 | 60 | > 10000 |  | 20 |
| COc1cc(CC2C(C)(C)CC(C)=CC23CC3)c(OC(C)=O)cc1Br (stereo not shown) [H, 8-(2'-Acetoxy-4'-bromo-5 '-methoxyphenyl)methyl-5,7,7-trimethylspiro[2.51]oct-4-ene] | 89 | 250 | 89 | 160 |  | 26 |
| CC1(C)[C@@H](Br)CC[C@@]2(C)Oc3cc(Br)c(O)cc3C[C@@H]12 [cymobarbatol] |  |  |  |  | highly active antimutagens |  |

More lines, main results first:

| Emax (androgen receptor; [3]) [%] | IC50 (androgen receptor; Table 1, androgen antagonists) [nM] | Emax (androgen receptor; [4]) [%] | IC50 [2] [nM] | Molecule | antimutagenic activity [1] | Efficacy, PR-TI (% maximal response) [2] [%] |
| --- | --- | --- | --- | --- | --- | --- |
| 85 | 180 | 85 | 865 | C=C1[C@@H](Cc2cc(OC)c(Br)cc2O)C(C)(C)CC[C@@H]1O [B, (1S,3S)-1-Hydroxy-2-methylidene-3-(2'-hydroxy-4'-bromo-5'-methoxyphenyl)methyl-4,4-dimethylcyclohexane] |  | 98 |
| 82 | 210 | 82 | > 10000 | C=C1C=CCC(C)(C)C1Cc1ccccc1O (stereo not shown) [C, 1-Methylidene-6-(2'-hydroxyphenyl)methyl-5,5-dimethylcyclohex-2-ene] |  | 20 |
| 69 | 66 | 69 | 3800 | C=C1C=CCC(C)(C)C1Cc1cccc([N+](=O)[O-])c1 (stereo not shown) [Compound A, 1-Methylidene-6-(3'-nitrophenyl)methyl-5,5-dimethylcyclohex-2-ene] |  | 45 |
| 92 | 220 | 92 | 3500 | C=C1CCCC(C)(C)C1Cc1ccccc1O (stereo not shown) [D] |  | 73 |
| 87 | 240 | 87 | 820 | C=C1C=CCC(C)(C)C1Cc1cc(OC)c(Br)cc1OC(C)=O (stereo not shown) [F] |  | 53 |
| 79 | 250 | 79 | 920 | O=C1CCCCC1Cc1ccc([N+](=O)[O-])cc1 (stereo not shown) [G, 2-(4'-Nitrophenyl)methylcyclohexan-1-one] |  | 98 |
| 85 | 300 | 85 | 850 | C=C1[C@@H](Cc2cc(OC)c(Br)cc2O)C(C)(C)CC[C@]1(C)O [J, (1S,3S)-1-Hydroxy-2-methylidene-3-(2'-hydroxy-4'-bromo-5'-methoxyphenyl)methyl-1,4,4-trimethylcyclohexane] |  | 95 |

Reference: patent US5677336A, “Non-steroid androgen receptor antagonist compounds and methods” (Ligand Pharmaceuticals Incorporated, priority 1993, dated 1997)
